Patent publication US7608577B2, “Peptidyl ketones as inhibitors of DPIV” (OSI Pharmaceuticals, Inc., priority 2001, dated 2009)

Tests used:
plasma DPIV activity = target: T1, plasma DPIV activity (Rattus norvegicus, UniProt P14740); assay: DPIV inhibiting activity after intravasal and oral administration to Wistar rats; format: in vivo; conditions: 100 mg/kg; for In vivo DPIV-inhibition at tmax, i.v.: intra-vasal (intra-arterial); for In vivo DPIV-inhibition at tmax, p.o.: oral
T1 construct: from tissue; host or cells: plasma of Wistar rats
Procedure: Male Wistar rats (Shoe: Wist(Sho)) with a body weight ranging between 250 and 350 g were purchased from Tierzucht Schönwalde (Schönwalde, Germany).
Animals were single-caged under conventional conditions with controlled temperature (22±2° C.) on a 12/12 hours light/dark cycle (light on at 06:00 AM). Standard pelleted chow (ssniff® Soest, Germany) and tap water acidified with HCl were allowed ad libitum.
After ≧one week of adaptation at the housing conditions, catheters were implanted into the carotid artery of Wistar rats under general anaesthesia (i.p. injection of 0.25 ml/kg b.w. ROMPUN® [2%], BayerVital, Germany and 0.5 ml/kg b.w. Ketamin 10, Atarost GmbH & Co., Twistringen, Germany). The animals were allowed to recover for one week. The catheters were flushed with heparin-saline (100 IU/ml) three times per week. In case of catheter dysfunction, a second catheter was inserted into the contralateral carotid artery of the respective rat. After one week of recovery from surgery, this animal was reintegrated into the study. In case of dysfunction of the second catheter, the animal was withdrawn from the study. A new animal was recruited and the experiments were continued in the planned sequence, beginning at least 7 days after catheter implantation.
Rats with intact catheter function were administered placebo (1 ml saline, 0.154 mol/l) or test compound via the oral and the intra-vasal (intra-arterial) route. After overnight fasting, 100 μl samples of heparinised arterial blood were collected at −30, −5, and 0 min. The test substance was dissolved freshly in 1.0 ml saline (0.154 mol/l) and was administered at 0 min either orally via a feeding tube (75 mm; Fine Science Tools, Heidelberg, Germany) or via the intra-vasal route. In the case of oral administration, an additional volume of 1 ml saline was injected into the arterial catheter. In the case of intra-arterial administration, the catheter was immediately flushed with 30 μl saline and an additional 1 ml of saline was given orally via the feeding tube.
After application of placebo or the test substances, arterial blood samples were taken at 2.5, 5, 7.5, 10, 15, 20, 40, 60 and 120 min from the carotid catheter of the conscious unrestrained rats. All blood samples were collected into ice cooled Eppendorf tubes (Eppendorf-Netheler-Hinz, Hamburg, Germany) filled with 10 μl 1M sodium citrate buffer (pH 3.0) for plasma DPIV activity measurement. Eppendorf tubes were centrifuged immediately (12000 rpm for 2 min, Hettich Zentrifuge EBA 12, Tuttlingen; Germany): The plasma fractions were stored on ice until analysis or were frozen at −20° C. until analysis. […]
Statistical evaluations and graphics were performed with PRISM® 3.02 (GraphPad Software, Inc.). All parameters were analysed in a descriptive manner including mean and SD.

porcine DP II = assay: Inhibition of DPIV-like enzymes: dipeptidyl peptidase II; format: biochemical; conditions: inhibitor 1*10^−4 M-5*10^−8 M, pH7.6
Procedure: DP II (3.4.14.2) releases N-terminal dipeptides from oligopeptides if the N-terminus is not protonated (McDonald, J. K., Ellis, S. & Reilly, T. J., 1966, J. Biol. Chem., 241, 1494-1501). Pro and Ala in P1-position are preferred residues. The enzyme activity is described as DPIV-like activity, but DP II has an acidic pH-optimum. The enzyme used was purified from porcine kidney.
100 μl inhibitor in a concentration range of 1*10^−4 M-5*10^−8 M was admixed with 100 μl buffer solution (40 mM HEPES, pH7.6, 0.015% Brij, 1 mM DTT), 50 μl lysylalanylaminomethylcoumarine solution (5 mM) and 20 μl porcine DP II (250fold diluted in buffer solution). Fluorescence measurement was performed at 30° C. and λexcitation=380 nm, λemission=465 nm for 25 min using a plate reader (HTS7000plus, Applied Biosystems, Weiterstadt, Germany). The Ki-values were calculated using Graphit 4.0.15 (Erithacus Software, Ltd., UK).

attractin = attractin (Homo sapiens, UniProt O75882); assay: Inhibition of DPIV-like enzymes: attractin; format: biochemical; conditions: inhibitor 1 mM to 30 nM, Gly-Pro-pNA 0.4 mM, APN
Procedure: 100 μl inhibitor stock solution was mixed with 100 μl buffer (HEPES pH7.6) and 20 μl diluted attractin and preincubated at 30° C. Reaction was started by addition of a mixture of 50 μl substrate (Gly-Pro-pNA, final concentration 0.4 mM) and 2 μl APN stock solution. Formation of the product pNA was measured at 405 nm and 30° C. over 10 min using the HTS 7000Plus plate reader (Perkin Elmer) and slopes were calculated. The final inhibitor concentrations ranged between 1 mM and 30 nM. For calculation of IC50 values, GraFit 4.0.13 (Erithacus Software) was used.

T1 sequence (P14740 38-767 limits assumed): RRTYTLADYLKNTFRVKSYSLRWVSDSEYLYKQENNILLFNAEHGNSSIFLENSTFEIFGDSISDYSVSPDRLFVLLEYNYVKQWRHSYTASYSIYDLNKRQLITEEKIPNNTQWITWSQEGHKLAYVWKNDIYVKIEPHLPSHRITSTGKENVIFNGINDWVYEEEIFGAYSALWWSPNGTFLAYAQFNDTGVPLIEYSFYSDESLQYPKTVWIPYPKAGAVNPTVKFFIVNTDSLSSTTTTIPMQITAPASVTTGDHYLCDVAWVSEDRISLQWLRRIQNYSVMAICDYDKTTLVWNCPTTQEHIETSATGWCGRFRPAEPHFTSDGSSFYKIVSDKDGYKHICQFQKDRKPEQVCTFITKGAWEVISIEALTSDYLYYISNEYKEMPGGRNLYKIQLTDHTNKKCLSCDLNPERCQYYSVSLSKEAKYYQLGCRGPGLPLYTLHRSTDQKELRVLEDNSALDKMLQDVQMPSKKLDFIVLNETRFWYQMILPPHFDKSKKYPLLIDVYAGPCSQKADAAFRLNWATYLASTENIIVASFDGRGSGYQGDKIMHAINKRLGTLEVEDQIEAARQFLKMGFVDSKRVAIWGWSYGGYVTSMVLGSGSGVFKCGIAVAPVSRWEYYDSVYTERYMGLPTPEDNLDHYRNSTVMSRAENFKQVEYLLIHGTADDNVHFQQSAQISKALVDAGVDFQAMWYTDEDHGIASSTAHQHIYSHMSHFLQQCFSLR
Chain of attractin (O75882 84-1429, species assumed): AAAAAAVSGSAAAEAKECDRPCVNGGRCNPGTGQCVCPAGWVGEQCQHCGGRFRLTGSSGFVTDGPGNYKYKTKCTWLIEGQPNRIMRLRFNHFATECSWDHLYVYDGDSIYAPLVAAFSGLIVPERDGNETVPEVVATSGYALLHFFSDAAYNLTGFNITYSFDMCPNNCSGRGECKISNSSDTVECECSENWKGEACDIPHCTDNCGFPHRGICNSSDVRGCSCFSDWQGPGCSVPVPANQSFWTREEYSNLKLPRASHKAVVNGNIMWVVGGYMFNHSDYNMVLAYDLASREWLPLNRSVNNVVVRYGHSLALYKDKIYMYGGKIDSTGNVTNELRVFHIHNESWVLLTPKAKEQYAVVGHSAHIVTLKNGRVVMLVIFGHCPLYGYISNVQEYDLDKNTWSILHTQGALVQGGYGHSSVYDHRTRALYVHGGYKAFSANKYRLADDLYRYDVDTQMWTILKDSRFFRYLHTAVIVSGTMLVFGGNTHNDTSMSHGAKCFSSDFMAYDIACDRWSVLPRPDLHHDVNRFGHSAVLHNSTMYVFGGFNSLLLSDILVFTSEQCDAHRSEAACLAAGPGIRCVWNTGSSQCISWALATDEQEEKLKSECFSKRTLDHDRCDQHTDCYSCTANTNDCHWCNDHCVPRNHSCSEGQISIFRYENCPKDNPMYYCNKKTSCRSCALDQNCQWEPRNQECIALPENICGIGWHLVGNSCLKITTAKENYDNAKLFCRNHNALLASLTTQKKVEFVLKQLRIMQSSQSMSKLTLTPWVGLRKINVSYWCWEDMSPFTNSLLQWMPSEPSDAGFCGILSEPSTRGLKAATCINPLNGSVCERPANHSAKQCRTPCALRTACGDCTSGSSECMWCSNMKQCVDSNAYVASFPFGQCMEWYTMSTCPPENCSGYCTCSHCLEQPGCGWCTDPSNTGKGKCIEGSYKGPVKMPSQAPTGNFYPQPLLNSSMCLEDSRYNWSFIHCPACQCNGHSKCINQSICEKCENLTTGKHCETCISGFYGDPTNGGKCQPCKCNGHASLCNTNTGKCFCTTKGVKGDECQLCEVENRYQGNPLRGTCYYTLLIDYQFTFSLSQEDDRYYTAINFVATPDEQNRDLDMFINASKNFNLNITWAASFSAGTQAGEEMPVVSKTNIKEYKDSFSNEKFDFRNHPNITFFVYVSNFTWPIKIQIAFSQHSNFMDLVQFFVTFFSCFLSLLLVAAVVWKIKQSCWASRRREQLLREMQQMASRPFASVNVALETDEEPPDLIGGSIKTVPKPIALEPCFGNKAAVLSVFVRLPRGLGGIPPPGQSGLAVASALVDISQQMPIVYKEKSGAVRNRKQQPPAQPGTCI

Row | Structure (SMILES) | In vivo DPIV-inhibition at tmax, i.v. (plasma DPIV activity) | In vivo DPIV-inhibition at tmax, p.o. (plasma DPIV activity) | inhibition of DP II (porcine DP II) | inhibition of attractin (attractin)
1 | Br.CC(=O)OCC(=O)[C@@H]1CCCN1C(=O)[C@@H](NC(=O)[C@H](C)N)C(C)C [H-Ala-Val-Pro-CH2O—CO—CH3*HBr, 2-[(Acetyloxy-methyl)carbonyl]-1-N-[(L)-Alanyl-(L)-Valinyl]-(2S)-pyrrolidine hydrobromide] | 89% | 87% |  | 
2 | Br.CC(C)[C@H](NC(=O)[C@H](C)N)C(=O)N1CCC[C@H]1C(=O)COC(=O)c1ccccc1 [H-Ala-Val-Pro-CO—CH2O—CO—Ph*HBr, 2-[(Benzoyloxy-methyl)carbonyl]-1-N-[{(L)-Alanyl}-(L)-Valinyl]-(2S)-pyrrolidine hydrobromide] | 95% | 68% | No inhibition | 
3 | Br.CC(=O)[C@@H]1CCCN1C(=O)[C@@H](NC(=O)[C@H](C)N)C(C)C [H-Ala-Val-Pro-Me*HBr, 2-Methylcarbonyl-1-N-[(L)-Alanyl-(L)-Valinyl]-(2S)-pyrrolidine hydrobromide] |  |  |  | No inhibition
